Data as given in ChEMBL document CHEMBL5393456, “Dichlorophenol hsd17b13 inhibitors and uses thereof” (2022).

The compounds below were run against T1, 17-beta-hydroxysteroid dehydrogenase 13 (Homo sapiens, UniProt Q7Z5P4) (assay: Inhibition of His-tagged HSD17B13 (unknown origin) expressed in Escherichia coli using estradiol as substrate incubated for 2 hrs and measured by LC/MS estrone detection assay).
T1 sequence (Q7Z5P4 whole entry): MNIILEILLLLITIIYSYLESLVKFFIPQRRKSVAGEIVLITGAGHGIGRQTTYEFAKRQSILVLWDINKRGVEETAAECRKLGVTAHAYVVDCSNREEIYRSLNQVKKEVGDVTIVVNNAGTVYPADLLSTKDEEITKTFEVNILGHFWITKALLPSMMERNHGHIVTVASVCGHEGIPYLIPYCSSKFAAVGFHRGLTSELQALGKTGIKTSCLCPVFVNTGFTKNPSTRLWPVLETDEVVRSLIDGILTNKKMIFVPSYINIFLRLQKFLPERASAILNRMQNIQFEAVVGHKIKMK

SMILES | IC50
Cc1ccc(NC(=O)c2cc(Cl)c(O)c(Cl)c2)c2c(=O)n(Cc3ccccc3OC(F)(F)F)c(C(F)F)nc12 | ≤ 100 nM
O=C(Nc1cccc2ncn(Cc3ccccc3-c3ccccn3)c(=O)c12)c1cc(Cl)c(O)c(Cl)c1 | ≤ 500 nM
Cc1ccc(NC(=O)c2cc(Cl)c(O)c(Cl)c2)c2c(=O)n(Cc3ccccc3C(F)(F)F)c(C(F)F)nc12 | ≤ 100 nM
O=C(Nc1cccc2ncn(Cc3ncccc3Cl)c(=O)c12)c1cc(Cl)c(O)c(Cl)c1 | ≤ 100 nM
O=C(Nc1ccc(Cl)c2ncn(Cc3ccccc3OC(F)(F)F)c(=O)c12)c1cc(Cl)c(O)c(Cl)c1 | ≤ 100 nM
Cc1ccc(NC(=O)c2cc(Cl)c(O)c(Cl)c2)c2c(=O)n(Cc3ncccc3C(F)(F)F)c(C)nc12 | ≤ 100 nM
Cc1ccc(NC(=O)c2cc(Cl)c(O)c(Cl)n2)c2c(=O)n(Cc3ccccc3OC(F)(F)F)c(C)nc12 | ≤ 100 nM
CN(C)CCOc1ccc(NC(=O)c2cc(Cl)c(O)c(Cl)c2)c(C(=O)NCc2ccccc2OC(F)(F)F)c1 | > 10000 nM
Cc1ccc(NC(=O)c2cc(Cl)c(O)c(Cl)c2)c2c(=O)n([C@@H]3CC[C@H]3c3ccccc3)c(C)nc12 | ≤ 100 nM
O=C(NCc1ccccc1OC(F)(F)F)C1CCCN1C(=O)c1cc(Cl)c(O)c(Cl)n1 (stereo not drawn) | > 10000 nM
[2H]C([2H])(c1ccccc1C(F)(F)F)n1c(C)nc2c(C)ccc(NC(=O)c3cc(Cl)c(O)c(Cl)c3)c2c1=O | ≤ 100 nM
O=C(Nc1cccc2ncn(Cc3cccc(C(F)(F)F)c3)c(=O)c12)c1cc(Cl)c(O)c(Cl)c1 | ≤ 100 nM
O=C(Nc1cccc2ncn(Cc3ccccc3C(F)(F)F)c(=O)c12)c1cc(Cl)c(O)c(Cl)n1 | ≤ 100 nM
O=C(Nc1scnc1C(=O)NCc1cccc(F)c1)c1cc(Cl)c(O)c(Cl)c1 | ≤ 100 nM
O=C(Nc1cccc2ncn(Cc3ccccc3N3CCOCC3)c(=O)c12)c1cc(Cl)c(O)c(Cl)c1 | ≤ 100 nM
O=C(Nc1cc(Cl)sc1C(=O)NCCc1ccccc1OC(F)(F)F)c1cc(Cl)c(O)c(Cl)c1 | ≤ 500 nM
O=C(Nc1ccc(F)c2ncn(Cc3ccccc3OC(F)(F)F)c(=O)c12)c1cc(Cl)c(O)c(Cl)c1 | ≤ 100 nM
O=C(Nc1cccc2ncn(C(c3ccccc3)c3ccccc3)c(=O)c12)c1cc(Cl)c(O)c(Cl)c1 | ≤ 100 nM

SMILES | IC50
O=C(Nc1cccc2ncn(Cc3ccn(-c4ccccc4F)n3)c(=O)c12)c1cc(Cl)c(O)c(Cl)c1 | ≤ 100 nM
Cn1nc(Cn2cnc3cccc(NC(=O)c4cc(Cl)c(O)c(Cl)c4)c3c2=O)c2ccccc21 | ≤ 100 nM
O=C(Nc1cccc2ncn(Cc3cccnc3C(F)(F)F)c(=O)c12)c1cc(Cl)c(O)c(Cl)c1 | ≤ 100 nM
O=C(Nc1ccc(F)c2ncn(Cc3ccccc3C(F)(F)F)c(=O)c12)c1cc(Cl)c(O)c(Cl)c1 | ≤ 100 nM
O=C(Nc1scnc1C(=O)NCc1ccccc1OC(F)(F)F)c1cc(Cl)c(O)c(Cl)n1 | ≤ 100 nM
Cc1nc2c(F)ccc(NC(=O)c3cc(Cl)c(O)c(Cl)c3)c2c(=O)n1Cc1ncccc1C(F)(F)F | ≤ 100 nM
Cc1ccc(NC(=O)c2cc(Cl)c(O)c(Cl)c2)c2c(=O)n(Cc3ccccc3C(F)(F)F)c(C)nc12 | ≤ 100 nM
C[C@@H](c1cccc(F)c1)n1cnc2cccc(NC(=O)c3cc(Cl)c(O)c(Cl)c3)c2c1=O | ≤ 100 nM
O=C(Nc1cccc2ncn(Cc3n[nH]c4ccccc34)c(=O)c12)c1cc(Cl)c(O)c(Cl)c1 | ≤ 100 nM
O=C(Nc1cccc2ncn(Cc3ccc(C(F)(F)F)cc3)c(=O)c12)c1cc(Cl)c(O)c(Cl)c1 | ≤ 100 nM
O=C(Nc1cccc2ncn(Cc3cccc(OC(F)(F)F)c3)c(=O)c12)c1cc(Cl)c(O)c(Cl)c1 | ≤ 100 nM
O=C(Nc1cccc2ncn(Cc3ncccc3C(F)(F)F)c(=O)c12)c1cc(Cl)c(O)c(Cl)c1 | ≤ 100 nM
O=C(Nc1cccc2ncn(Cc3ccccc3C(F)(F)F)c(=O)c12)c1cc(Cl)c(O)c(Cl)c1 | ≤ 100 nM
[2H]C([2H])([2H])c1nc2c(C)ccc(NC(=O)c3cc(Cl)c(O)c(Cl)c3)c2c(=O)n1Cc1ccccc1C(F)(F)F | ≤ 100 nM
O=C(Nc1scnc1C(=O)NCc1ccccc1C(F)(F)F)c1cc(Cl)c(O)c(Cl)c1 | ≤ 100 nM
Cc1nc2nccc(NC(=O)c3cc(Cl)c(O)c(Cl)c3)c2c(=O)n1Cc1ccccc1OC(F)(F)F | ≤ 100 nM
[2H]C([2H])([2H])c1nc2c(C)ccc(NC(=O)c3cc(Cl)c(O)c(Cl)c3)c2c(=O)n1Cc1ccccc1OC(F)(F)F | ≤ 100 nM
Cc1ccc(NC(=O)c2cc(Cl)c(O)c(Cl)c2)c2c(=O)n(Cc3ccccc3C(F)(F)F)c(CF)nc12 | ≤ 100 nM

Second part, the compound after the results:

IC50 | SMILES
≤ 100 nM | O=C(Nc1scnc1C(=O)NCc1ccccc1OC(F)(F)F)c1cc(Cl)c(O)c(Cl)c1
≤ 100 nM | Cc1nc2c(Cl)ccc(NC(=O)c3cc(Cl)c(O)c(Cl)c3)c2c(=O)n1Cc1ccccc1C(F)(F)F
≤ 100 nM | O=C(Nc1ccc(F)c2ncn(Cc3ccccc3C(F)(F)F)c(=O)c12)c1cc(Cl)c(O)c(Cl)n1
≤ 100 nM | COc1ccccc1CCNC(=O)c1sccc1NC(=O)c1cc(Cl)c(O)c(Cl)c1
≤ 100 nM | O=C(Nc1cccc2ncn(Cc3cccc(F)c3)c(=O)c12)c1cc(Cl)c(O)c(Cl)n1
≤ 100 nM | O=C(Nc1cccc2ncn(Cc3ccccc3F)c(=O)c12)c1cc(Cl)c(O)c(Cl)n1
≤ 100 nM | Cc1ccc(NC(=O)c2cc(Cl)c(O)c(Cl)c2)c2c(=O)n(Cc3ccccc3OC(F)(F)F)c(C)nc12
≤ 100 nM | Cc1ccc(NC(=O)c2cc(Cl)c(O)c(Cl)c2)c2c(=O)n(Cc3ccccc3OC(F)(F)F)cnc12
≤ 100 nM | Cn1nc(CNC(=O)c2ncsc2NC(=O)c2cc(Cl)c(O)c(Cl)c2)c2ccccc21
≤ 100 nM | Cc1nc2c(F)ccc(NC(=O)c3cc(Cl)c(O)c(Cl)c3)c2c(=O)n1Cc1nn(C)c2ccccc12
≤ 100 nM | [2H]C([2H])([2H])c1nc2c(C)ccc(NC(=O)c3cc(Cl)c(O)c(Cl)n3)c2c(=O)n1Cc1ccccc1OC(F)(F)F
≤ 100 nM | N#Cc1ccccc1Cn1cnc2cccc(NC(=O)c3cc(Cl)c(O)c(Cl)c3)c2c1=O
≤ 100 nM | O=C(Nc1cc(Cl)sc1C(=O)NCc1ccccc1OC(F)(F)F)c1cc(Cl)c(O)c(Cl)c1
≤ 100 nM | Cc1ccc(NC(=O)c2cc(Cl)c(O)c(Cl)n2)c2c(=O)n(Cc3ccccc3OC(F)(F)F)c(C(F)F)nc12
> 10000 nM | O=C(NCc1ccccc1OC(F)(F)F)C1CCCN1C(=O)c1cc(Cl)c(O)c(Cl)c1 (stereo not drawn)
> 10000 nM | NS(=O)(=O)c1ccccc1Cn1cnc2cccc(NC(=O)c3cc(Cl)c(O)c(Cl)c3)c2c1=O
> 10000 nM | O=C(N[C@H]1CCCC[C@@H]1C(=O)NCc1ccccc1OC(F)(F)F)c1cc(Cl)c(O)c(Cl)n1
≤ 100 nM | Cc1nc2cccc(NC(=O)c3cc(Cl)c(O)c(Cl)c3)c2c(=O)n1Cc1ccccc1OC(F)(F)F
≤ 100 nM | Cn1c(=O)n(Cc2ccccc2OC(F)(F)F)c(=O)c2c(NC(=O)c3cc(Cl)c(O)c(Cl)c3)cccc21
≤ 100 nM | Cc1nc2c(F)ccc(NC(=O)c3cc(Cl)c(O)c(Cl)n3)c2c(=O)n1Cc1ccccc1OC(F)(F)F
≤ 100 nM | O=C(Nc1cccc2ncn(Cc3ccccc3OC(F)(F)F)c(=O)c12)c1cc(Cl)c(O)c(Cl)c1
≤ 100 nM | Cc1nsc(NC(=O)c2cc(Cl)c(O)c(Cl)c2)c1C(=O)N[C@@H](C)c1ccccc1F
≤ 100 nM | Cc1nc2c(F)ccc(NC(=O)c3cc(Cl)c(O)c(Cl)c3)c2c(=O)n1Cc1ccccc1OC(F)(F)F
≤ 100 nM | Cc1nc2c(F)ccc(NC(=O)c3cc(Cl)c(O)c(Cl)c3)c2c(=O)n1Cc1ccccc1C(F)(F)F
≤ 100 nM | O=C(Nc1cccc2ncn(C3(c4ccccc4F)CC3)c(=O)c12)c1cc(Cl)c(O)c(Cl)c1
≤ 100 nM | C[C@@H](c1cccc(F)c1)n1cnc2cccc(NC(=O)c3cc(Cl)c(O)c(Cl)n3)c2c1=O
≤ 100 nM | C[C@H](c1cccc(F)c1)n1cnc2cccc(NC(=O)c3cc(Cl)c(O)c(Cl)c3)c2c1=O
